Experimental data: patent US10588321B2, “Method for using mustard meal or an extract thereof” (University of Idaho, priority 2015, dated 2020)

Experiments:
liverwort = assay: Liverwort control by spraying; format: in vivo; conditions: for contribution to phytotoxicity, in words: liverwort; for liverwort control, in words: sprayed on liverwort
Source text: The sinalbin had been hydrolyzed to undetectable levels.

[1] = system: weeds, vegetative cover, wheat, cotton; conditions: cited from earlier work
potato sprouting = conditions: in vivo; cited from earlier work

With `OCc1ccc(O)cc1` [4-hydroxybenzyl alcohol] the “contribution to phytotoxicity, in words” value (liverwort) was “primary phytotoxic compounds”, the “contribution to phytotoxicity, in words” value (liverwort; listed as 4-OH benzyl alcohol) was “more phytotoxic that SCN^−” and the “liverwort control, in words” value (liverwort) was “did not control the liverwort as effectively as applying the extract”.
For `N#CCc1ccc(O)cc1` [4-hydroxyphenyl acetonitrile], the “contribution to phytotoxicity, in words” value (liverwort) was “primary phytotoxic compounds”, the “contribution to phytotoxicity, in words” value (liverwort; listed as nitrile) was “much more phytotoxic than SCN^−” and the “liverwort control, in words” value (liverwort) was “did not control the liverwort as effectively as applying the extract”.
For `N#CS` [SCN^−, ionic thiocyanate], the “contribution to phytotoxicity, in words” value (liverwort) is given as “minor contributor”, the “rate causing inhibition of wheat germination” value ([1]; effect no longer observed at 69 days post application) is given as 342 kilograms SCN^−/ha and the “rate necessary for complete plant kill for 4 months” value ([1]; in vivo) is given as 1,366 kg SCN^−/ha. The “rate removing a large percentage of the weeds” value ([1]; in vivo) was 137 kilograms SCN^−/ha and the “rate at which cotton defoliation was possible” value ([1]; solutions sprayed directly on vegetative growth) was 8.6 kilograms SCN^−/ha.
For `N.N#CS` [ammonium thiocyanate (NH4SCN), ammonium thiocyanate], the “effect on potato sprouting, in words” value (potato sprouting) is given as “promote potato sprouting”.
In the case of `N#C[S-].[K+]` [potassium thiocyanate (KSCN), potassium thiocyanate], the “effect on potato sprouting, in words” value (potato sprouting) is given as “promote potato sprouting”.
In the case of `N#C[S-].[Na+]` [sodium thiocyanate (NaSCN), sodium thiocyanate], the “effect on potato sprouting, in words” value (potato sprouting) is listed as “promote potato sprouting”.
